IC50 data for 16 compounds are collected here from patent US9469642B2, “Purinone compounds as kinase inhibitors” (Pharmacyclics LLC, priority 2012, dated 2016).

Where a name gives a salt, the structure may show the parent alone.

Common to all, as to format: biochemical
In one assay the target is T1, BTK (Homo sapiens, UniProt Q06187).
T1 construct: purified from insect cells as a full-length construct containing a N-terminal 6×-His tag; His6 (N); host or cells: insect cells (baculovirus Sf21)
The assay can be described thus: Btk in vitro inhibitory activity (kinase assay by one of Methods A, B or C). The procedure:
(§1) Btk kinase activity is determined using a time-resolved fluorescence resonance energy transfer (TR-FRET) methodology. Measurements are performed in a reaction volume of 50 μL using 96-well assay plates. Kinase enzyme, inhibitor, ATP (at the Km for the kinase), and 1 peptide substrate (Biotin-AVLESEEELYSSARQ-NH2) are incubated in a reaction buffer composed of 20 mM Tris, 50 mM NaCl, MgCl2 (5-25 mM depending on the kinase), MnCl2 (0-10 mM), 1 mM DTT, 0.1 mM EDTA, 0.01% bovine serum albumin, 0.005% Tween-20, and 10% DMSO at pH 7.4 for one hour. The reaction is quenched by the addition of 1.2 equivalents of EDTA (relative to divalent cation) in 25 μL of 1× Lance buffer (Perkin-Elmer). Streptavidin-APC (Perkin-Elmer) and Eu-labeled p-Tyr100 antibody (Perkin-Elmer) in 1× Lance buffer are added in a 25 μL volume to give final concentrations of 100 nM and 2.5 nM, respectively, and the mixture is allowed to incubate for one hour. The TR-FRET signal is measured on a multimode plate reader with an excitation wavelength (λEx) of 330 nm and detection wavelengths (λEm) of 615 and 665 nm. Activity is determined by the ratio of the fluorescence at 665 nm to that at 615 nm. For each compound, enzyme activity is measured at various concentrations of compound. Negative control reactions are performed in the absence of inhibitor in replicates of six, and two no-enzyme controls are used to determine baseline fluorescence levels. Inhibition constants, Ki(app), were obtained using the program BatchKi (Kuzmic et al. (2000), Anal. Biochem. 286:45-50). IC50s are obtained according to the equation: IC50=[…]+[E]total/2;
(§2) For all kinases, [ATP]=Km^ATP, [Btk]total=0.5 nM and [Lck]total=6 nM.
(§3) Kinase activity is measured in vitro using electrophoretic mobility shift assay. The kinase reactions are assembled in a total volume of 25 μL in 384 well plates. The reactions comprise: BTK enzyme (1 nM, N-terminal His6-tagged, recombinant, full-length, human BTK purified from baculovirus Sf21 insect cell system), inhibitor, ATP (16 μM, the apparent Km for the kinase), fluorescently labeled peptide substrate (1 μM, FAM-GEEPLYWSFPAKKK-NH2) in a reaction buffer composed of 100 mM HEPES, pH7.5, 5 mM MgCl2 1 mM DTT, 0.1% bovine serum albumin, 0.01% Triton X-100, and 1% DMSO. The reaction is incubated for one hour and is quenched by the addition of 45 μL of termination buffer (100 mM HEPES, pH7.5, 0.01% Triton X-100, 30 mM EDTA). The terminated reactions are analyzed using 12 channel LabChip® 3000 microfluidic detection instrument (Caliper Life Sciences). The enzymatic phosphorylation of the peptide results in a change in net charge, enabling electrophoretic separation of product from substrate peptide. As substrate and product peptides are separated, two peaks of fluorescence are observed. Change in the relative fluorescence intensity of the substrate and product peaks is the parameter measured, reflecting enzyme activity. In the presence of an inhibitor, the ratio between product and substrate is altered:the signal of the product decreases, while the signal of the substrate increases.
(§4) Activity in each sample is determined as the product to sum ratio (PSR):P/(S+P), where P is the peak height of the product peptide and S is the peak height of the substrate peptide. For each compound, enzyme activity is measured at various concentrations (12 concentrations of compound spaced by 3× dilution intervals). Negative control samples (0%-inhibition in the absence of inhibitor) and positive control samples (100%-inhibition, in the presence of 20 mM EDTA) are assembled in replicates of four and are used to calculate %-inhibition values for each inhibitor at each concentration. Percent inhibition (Pinh) is determined using following equation: […]

Another assay concerns the target LCK (Homo sapiens, UniProt P06239). The assay can be described thus: Kinase panel inhibition, LCK (one of the methods of Example 76a, 76b, 76c). The procedure:
as §1, §2, §3, §4

A further assay concerns the target EGFR (Homo sapiens, UniProt P00533). The assay can be described thus: Kinase panel inhibition, EGFR (one of the methods of Example 76a, 76b, 76c). The procedure:
as §1, §2, §3, §4

Sequence of LCK (P06239 whole entry, species assumed): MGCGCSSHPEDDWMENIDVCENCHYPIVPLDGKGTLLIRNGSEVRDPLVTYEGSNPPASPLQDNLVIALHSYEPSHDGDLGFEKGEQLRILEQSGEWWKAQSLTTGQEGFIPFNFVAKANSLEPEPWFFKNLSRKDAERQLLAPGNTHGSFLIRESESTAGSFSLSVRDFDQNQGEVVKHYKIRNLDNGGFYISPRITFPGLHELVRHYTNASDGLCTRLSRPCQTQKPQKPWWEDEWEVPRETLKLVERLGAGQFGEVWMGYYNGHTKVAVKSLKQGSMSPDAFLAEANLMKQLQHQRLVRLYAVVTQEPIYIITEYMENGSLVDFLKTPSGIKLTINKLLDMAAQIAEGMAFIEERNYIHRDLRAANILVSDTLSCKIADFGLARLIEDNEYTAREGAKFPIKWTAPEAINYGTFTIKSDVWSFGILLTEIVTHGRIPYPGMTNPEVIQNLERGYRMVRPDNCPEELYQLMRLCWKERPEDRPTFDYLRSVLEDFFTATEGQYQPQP
Sequence of EGFR (P00533 25-1210, species assumed): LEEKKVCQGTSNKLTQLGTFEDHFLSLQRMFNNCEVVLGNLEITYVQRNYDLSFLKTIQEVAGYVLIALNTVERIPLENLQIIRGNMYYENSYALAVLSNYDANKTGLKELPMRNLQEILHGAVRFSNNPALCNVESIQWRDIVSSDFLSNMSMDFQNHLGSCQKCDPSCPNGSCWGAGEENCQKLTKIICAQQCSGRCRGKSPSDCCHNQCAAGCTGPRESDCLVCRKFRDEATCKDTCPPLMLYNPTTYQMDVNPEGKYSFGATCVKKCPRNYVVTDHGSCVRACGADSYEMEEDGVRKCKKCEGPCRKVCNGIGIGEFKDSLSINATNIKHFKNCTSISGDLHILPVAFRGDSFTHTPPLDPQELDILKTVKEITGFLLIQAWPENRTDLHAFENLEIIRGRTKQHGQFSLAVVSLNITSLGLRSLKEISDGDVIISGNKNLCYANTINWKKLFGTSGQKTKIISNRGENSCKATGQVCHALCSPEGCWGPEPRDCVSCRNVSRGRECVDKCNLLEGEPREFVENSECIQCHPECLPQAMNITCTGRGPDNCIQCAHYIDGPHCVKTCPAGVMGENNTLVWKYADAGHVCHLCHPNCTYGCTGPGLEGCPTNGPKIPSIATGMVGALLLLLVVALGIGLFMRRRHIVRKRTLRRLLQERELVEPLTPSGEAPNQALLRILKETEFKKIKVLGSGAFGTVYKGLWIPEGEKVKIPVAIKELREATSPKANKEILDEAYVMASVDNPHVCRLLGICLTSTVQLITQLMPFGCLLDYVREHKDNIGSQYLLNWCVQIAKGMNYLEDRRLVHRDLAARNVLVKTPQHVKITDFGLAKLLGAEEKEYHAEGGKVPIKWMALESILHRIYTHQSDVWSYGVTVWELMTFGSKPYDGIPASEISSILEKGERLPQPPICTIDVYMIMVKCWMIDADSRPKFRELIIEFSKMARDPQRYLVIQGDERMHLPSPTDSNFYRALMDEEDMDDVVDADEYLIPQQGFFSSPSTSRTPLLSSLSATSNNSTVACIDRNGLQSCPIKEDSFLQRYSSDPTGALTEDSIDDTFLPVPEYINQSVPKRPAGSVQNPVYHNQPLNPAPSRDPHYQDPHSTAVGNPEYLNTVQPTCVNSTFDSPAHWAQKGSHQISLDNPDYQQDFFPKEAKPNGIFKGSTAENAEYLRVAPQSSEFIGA
T1 sequence (Q06187 whole entry): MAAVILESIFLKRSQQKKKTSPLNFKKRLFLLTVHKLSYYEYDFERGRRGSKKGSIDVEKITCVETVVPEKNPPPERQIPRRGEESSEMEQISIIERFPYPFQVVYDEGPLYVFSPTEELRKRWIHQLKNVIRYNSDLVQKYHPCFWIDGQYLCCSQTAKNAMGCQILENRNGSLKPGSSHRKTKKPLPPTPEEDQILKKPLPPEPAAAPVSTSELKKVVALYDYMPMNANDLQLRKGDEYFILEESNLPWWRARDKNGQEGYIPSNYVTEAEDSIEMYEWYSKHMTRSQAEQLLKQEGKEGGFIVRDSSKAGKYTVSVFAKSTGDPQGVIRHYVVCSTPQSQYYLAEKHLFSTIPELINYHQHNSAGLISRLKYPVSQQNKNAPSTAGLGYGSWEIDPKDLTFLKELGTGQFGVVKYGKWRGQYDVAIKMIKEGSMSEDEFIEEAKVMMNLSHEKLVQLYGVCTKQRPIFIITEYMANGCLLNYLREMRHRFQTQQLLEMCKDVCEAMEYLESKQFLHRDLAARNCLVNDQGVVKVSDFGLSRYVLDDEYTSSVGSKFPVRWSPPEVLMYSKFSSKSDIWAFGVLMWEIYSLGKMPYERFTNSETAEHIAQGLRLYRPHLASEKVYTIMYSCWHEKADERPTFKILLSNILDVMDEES

As usually defined, the IC50 is the point on the concentration scale where inhibition reaches its midpoint. Low readings indicate greater potency, high ones weaker potency. Take `COCCOc1ccc(-n2c(=O)n(-c3ccc(C)c(OC)c3)c3c(N)ncnc32)cc1N(C)C(=O)/C=C/CN(C)C` [Compound 104, (E)-N-(5-(6-amino-7-(3-methoxy-4-methylphenyl)-8-oxo-7H-purin-9(8H)-yl)-2-(2-methoxyethoxy)phenyl)-4-(dimethylamino)-N-methylbut-2-enamide]: the half-inhibitory concentration (IC50) against BTK was 100 to 1000 nM; against LCK, above 10000 nM; against EGFR, above 10000 nM.
In the case of `COCCOc1ccc(-n2c(=O)n(-c3ccc(C)c(OC)c3)c3c(N)ncnc32)cc1NC(=O)/C=C/CN(C)C` [Compound 112, (E)-N-(5-(6-amino-7-(3-methoxy-4-methylphenyl)-8-oxo-7H-purin-9(8H)-yl)-2-(2-methoxyethoxy)phenyl)-4-(dimethylamino)but-2-enamide], the 50% inhibitory concentration (IC50) against BTK was below 100 nM; against LCK, 1000 to 10000 nM; on EGFR, 1000 to 10000 nM.
With `CN(C(=O)/C=C/CNC1CC1)c1cccc(-n2c(=O)n(-c3ccc(Oc4ccccc4)cc3)c3c(N)ncnc32)c1` [Compound 118, (E)-N-(3-(6-amino-8-oxo-7-(4-phenoxyphenyl)-7H-purin-9(8H)-yl)phenyl)-4-(cyclopropylamino)-N-methylbut-2-enamide], the figures for the IC50 against BTK, at LCK and against EGFR were below 100 nM, 100 to 1000 nM and 100 to 1000 nM, respectively.
Consider `CN(C(=O)/C=C/CN(C)[C@H]1CCOC1)c1cccc(-n2c(=O)n(-c3ccc(Oc4ccccc4)cc3)c3c(N)ncnc32)c1` [Compound 123, (S,E)-N-(3-(6-amino-8-oxo-7-(4-phenoxyphenyl)-7H-purin-9(8H)-yl)phenyl)-N-methyl-4-(methyl(tetrahydrofuran-3-yl)amino)but-2-enamide], for which the half-maximal inhibitory concentration (IC50) is below 100 nM at BTK, 1000 to 10000 nM at LCK and 1000 to 10000 nM at EGFR.
On to `CN(C(=O)/C=C/CN(C)[C@@H]1CCOC1)c1cccc(-n2c(=O)n(-c3ccc(Oc4ccccc4)cc3)c3c(N)ncnc32)c1` [Compound 129, (R,E)-N-(3-(6-amino-8-oxo-7-(4-phenoxyphenyl)-7H-purin-9(8H)-yl)phenyl)-N-methyl-4-(methyl(tetrahydrofuran-3-yl)amino)but-2-enamide], for which the IC50 at BTK is below 100 nM; on LCK it was 1000 to 10000 nM; against EGFR, 1000 to 10000 nM.
`COCCN(C)C/C=C/C(=O)N(C)c1cccc(-n2c(=O)n(-c3ccc(Oc4ccccc4)cc3)c3c(N)ncnc32)c1` [Compound 134, (E)-N-(3-(6-amino-8-oxo-7-(4-phenoxyphenyl)-7H-purin-9(8H)-yl)phenyl)-4-((2-methoxyethyl)(methyl)amino)-N-methylbut-2-enamide]: the half-maximal inhibitory concentration (IC50) was below 100 nM against BTK, 1000 to 10000 nM against LCK and 100 to 1000 nM against EGFR.
In the case of `COCCOc1cc(N(C)C(=O)/C=C/CN(C)C)cc(-n2c(=O)n(-c3ccc(C)c(OC)c3)c3c(N)ncnc32)c1` [Compound 147, (E)-N-(3-(6-amino-7-(3-methoxy-4-methylphenyl)-8-oxo-7H-purin-9(8H)-yl)-5-(2-methoxyethoxy)phenyl)-4-(dimethylamino)-N-methylbut-2-enamide], the IC50 on BTK was below 100 nM; against LCK, above 10000 nM; against EGFR it was above 10000 nM.
On to `CN(C(=O)/C=C/CN(C)C1CC1)c1cccc(-n2c(=O)n(-c3ccc(Oc4cccc(F)c4)cc3)c3c(N)ncnc32)c1` [Compound 151, (E)-N-(3-(6-amino-7-(4-(3-fluorophenoxy)phenyl)-8-oxo-7H-purin-9(8H)-yl)phenyl)-4-(cyclopropyl(methyl)amino)-N-methylbut-2-enamide], for which the IC50 was below 100 nM against BTK, 1000 to 10000 nM at LCK and 1000 to 10000 nM against EGFR.
`CN(C/C=C/C(=O)N1CCOc2ccc(-n3c(=O)n(-c4ccc(Oc5ccccc5)cc4)c4c(N)ncnc43)cc21)C1CC1` [Compound 161, (E)-6-amino-9-(4-(4-(cyclopropyl(methyl)amino)but-2-enoyl)-3,4-dihydro-2H-benzo[b][1,4]oxazin-6-yl)-7-(4-phenoxyphenyl)-7H-purin-8(9H)-one]: the IC50 on BTK is below 100 nM; on LCK, 1000 to 10000 nM; against EGFR it was 100 to 1000 nM.
As to `COc1ccc(-n2c(=O)n(-c3ccc(Oc4ccccc4)cc3)c3c(N)ncnc32)cc1N(C)C(=O)/C=C/CN(C)C1CC1` [Compound 171, (E)-N-(5-(6-amino-8-oxo-7-(4-phenoxyphenyl)-7H-purin-9(8H)-yl)-2-methoxyphenyl)-4-(cyclopropyl(methyl)amino)-N-methylbut-2-enamide], the IC50 at BTK is below 100 nM; against LCK, 1000 to 10000 nM; against EGFR, 1000 to 10000 nM.
As to `Cc1ccc(N(C)C(=O)/C=C/CN(C)C2CC2)cc1-n1c(=O)n(-c2ccc(Oc3ccccc3)cc2)c2c(N)ncnc21` [Compound 191, (E)-N-(3-(6-amino-8-oxo-7-(4-phenoxyphenyl)-7H-purin-9(8H)-yl)-4-methylphenyl)-4-(cyclopropyl(methyl)amino)-N-methylbut-2-enamide], the 50% inhibitory concentration (IC50) was 100 to 1000 nM against BTK, above 10000 nM on LCK and above 10000 nM at EGFR.
Regarding `Cc1ccc(-n2c(=O)n(-c3ccc(Oc4ccccc4)cc3)c3c(N)ncnc32)cc1N(C)C(=O)/C=C/CN(C)C1CC1` [Compound 201, (E)-N-(5-(6-amino-8-oxo-7-(4-phenoxyphenyl)-7H-purin-9(8H)-yl)-2-methylphenyl)-4-(cyclopropyl(methyl)amino)-N-methylbut-2-enamide], the IC50 against BTK was below 100 nM; against LCK, 1000 to 10000 nM; on EGFR, 1000 to 10000 nM.
`Cc1cc(N(C)C(=O)/C=C/CN(C)C2CC2)cc(-n2c(=O)n(-c3ccc(Oc4ccccc4)cc3)c3c(N)ncnc32)c1` [Compound 211, (E)-N-(3-(6-amino-8-oxo-7-(4-phenoxyphenyl)-7H-purin-9(8H)-yl)-5-methylphenyl)-4-(cyclopropyl(methyl)amino)-N-methylbut-2-enamide]: the concentration for half-maximal inhibition (IC50) was below 100 nM against BTK, 1000 to 10000 nM against LCK and 100 to 1000 nM at EGFR.
For `COc1cc(N(C)C(=O)/C=C/CN(C)C2CC2)cc(-n2c(=O)n(-c3ccc(Oc4ccccc4)cc3)c3c(N)ncnc32)c1` [Compound 224, (E)-N-(3-(6-amino-8-oxo-7-(4-phenoxyphenyl)-7H-purin-9(8H)-yl)-5-methoxyphenyl)-4-(cyclopropyl(methyl)amino)-N-methylbut-2-enamide] the same measures were below 100 nM, 1000 to 10000 nM and 1000 to 10000 nM.
On the same counts, the results for `CNC/C=C/C(=O)N(C)c1cccc(-n2c(=O)n(-c3ccc(Oc4ccccc4)cc3)c3c(N)ncnc32)c1` [Compound 229, (E)-N-(3-(6-amino-8-oxo-7-(4-phenoxyphenyl)-7H-purin-9(8H)-yl)phenyl)-N-methyl-4-(methylamino)but-2-enamide hydrochloride] are below 100 nM, 1000 to 10000 nM and below 100 nM.
With `CN(C(=O)/C=C/CN(C)C1CC1)c1cccc(-n2c(=O)n(-c3ccc(OCc4ccccc4)cc3)c3c(N)ncnc32)c1` [Compound 234, (E)-N-(3-(6-amino-7-(4-(benzyloxy)phenyl)-8-oxo-7H-purin-9(8H)-yl)phenyl)-4-(cyclopropyl(methyl)amino)-N-methylbut-2-enamide], the figures for the IC50 against BTK, against LCK and against EGFR were below 100 nM, 1000 to 10000 nM and 1000 to 10000 nM, respectively.
